Key:
[1] = system: acute Herpes zoster (shingles); conditions: cited from earlier work
[2] = system: postherpetic neuralgia (PHN); assay: Tumescent treatment of patients with established postherpetic neuralgia (PHN); format: in vivo, human; conditions: B12 added to TEL[AT] in acute zoster
Source text: “Hotspot pain” is the area within the dermatome where the zoster pain is clearly the most intense. […] “Elsewhere pain” is zoster pain that affects areas within the dermatome other than the hotspot.

[3] = Stability of vitamin B12 for injection and of its pink colour; format: physicochemical
Experimental: When Klein placed a purchase order for their first vial of injectable B12, they had no idea that the solution would have a red/pink color. When 10 mg in 10 ml of B12 was added to 1,000 ml of TELTA (1:100 dilution of B12), the result was a TELTAB solution with a distinctive pink color. […] They thought the novel pink color would be memorable and an interesting topic of conversation. […] The next conceptual step was the idea that the pink color of TELTAB might be a clever marketing gimmick, which could distinguish TELTAB from all other bags of saline.

| Molecule | reduction of zoster-related intensely painful itching compared to placebo ([1]; 2-week protocol of multiple daily injections) | effect on pain of acute Herpes zoster compared to placebo ([1]; B12 1 mg/ml, 2 weeks) | incidence of PHN [2] | stability of pink pigment over time [3] | stability of nutritional function on exposure to light ([3]; light) |
| --- | --- | --- | --- | --- | --- |
| Cc1ncc(C[n+]2csc(CCO)c2C)c(N)n1 [Undiluted vitamin B1, Thiamine] | 30% |  |  |  |  |
| Cobalamin [B12] |  | gradually reduce the pain of acute Herpes zoster | reduced the incidence of PHN | does not appear to fade over time | not stable when exposed to light |

— patent US20240148776A1, “TUMESCENT SOLUTION WITH B VITAMINS” (priority 2022, published 2024)
